Biological target: T1, human S1P1 receptor (Homo sapiens, UniProt P21453)
T1 construct: expressed in transfected cells; membranes used
Assay: GTP γ35S binding assay for S1P1 activity
Type: biochemical
Settings: membranes of cells stably expressing the S1P1 receptor, test concentrations 0.08 to 5,000 nM
Procedure: Compounds were tested for S1 P1 activity using the GTP γ^35S binding assay. These compounds may be assessed for their ability to activate or block activation of the human S1 P1 receptor in cells stably expressing the S1 P1 receptor. GTP γ^35S binding was measured in the medium containing (mM) HEPES 25, pH 7.4, MgCl2 10, NaCl 100, dithiothreitol 0.5, digitonin 0.003%, 0.2 nM GTP γ^355, and 5 μg membrane protein in a volume of 150 μl. Test compounds were included in the concentration range from 0.08 to 5,000 nM unless indicated otherwise. Membranes were incubated with 100 μM 5′-adenylylimmidodiphosphate for 30 min, and subsequently with 10 μM GDP for 10 min on ice. Drug solutions and membrane were mixed, and then reactions were initiated by adding GTP γ^35S and continued for 30 min at 25° C. Reaction mixtures were filtered over Whatman GF/B filters under vacuum, and washed three times with 3 mL of ice-cold buffer (HEPES 25, pH7.4, MgCl2 10 and NaCl 100). Filters were dried and mixed with scintillant, and counted for ^35S activity using a β-counter. Agonist-induced GTP γ^355 binding was obtained by subtracting that in the absence of agonist. Binding data were analyzed using a non-linear regression method. In case of antagonist assay, the reaction mixture contained 10 nM S1P in the presence of test antagonist at concentrations ranging from 0.08 to 5000 nM.

T1 sequence (P21453 whole entry): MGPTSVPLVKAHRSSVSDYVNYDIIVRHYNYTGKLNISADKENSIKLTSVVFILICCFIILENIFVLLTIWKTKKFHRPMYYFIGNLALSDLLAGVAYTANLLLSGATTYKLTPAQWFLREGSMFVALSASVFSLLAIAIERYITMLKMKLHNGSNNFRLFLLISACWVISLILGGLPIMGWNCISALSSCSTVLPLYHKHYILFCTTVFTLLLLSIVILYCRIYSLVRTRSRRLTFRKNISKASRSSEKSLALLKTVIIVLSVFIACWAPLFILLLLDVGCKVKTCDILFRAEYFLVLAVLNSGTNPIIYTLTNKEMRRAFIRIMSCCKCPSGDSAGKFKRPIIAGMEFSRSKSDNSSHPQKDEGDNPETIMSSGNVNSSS

EC50 | Compound
160 nM | CCCN(C)c1cc(C(=O)Nc2ccc(CNCCCP(=O)(O)O)cc2)cc2ccc(OC)cc12 [Compound 8, [3-({4-[({6-methoxy-4-[methyl(propyl)amino]naphthalen-2-yl}carbonyl)amino]benzyl}amino)propyl]phosphonic acid]
494 nM | COc1ccc2cc(C(=O)Nc3ccc(CNCCCP(=O)(O)O)cc3)cc(N(C)C)c2c1 [Compound 9, (3-{[4-({[4-(dimethylamino)-6-methoxynaphthalen-2-yl]carbonyl}amino)benzyl]amino}propyl)phosphonic acid]

Further lines, the compound ahead of its results:

Compound | EC50
COc1ccc2cc(C(=O)Nc3ccc(CNCCCP(=O)(O)O)cc3)cc(N(C)CC3CC3)c2c1 [Compound 3, [3-({4-[({4-[(cyclopropylmethyl)(methyl)amino]-6-methoxynaphthalen-2-yl}carbonyl)amino]benzyl}amino)propyl]phosphonic acid] | 138 nM
CCN(CC1CC1)c1cc(C(=O)Nc2ccc(CNCCCP(=O)(O)O)cc2)cc2ccc(OC)cc12 [Compound 5, [3-({4-[({4-[(cyclopropylmethyl)(ethyl)amino]-6-methoxynaphthalen-2-yl}carbonyl)amino]benzyl}amino)propyl]phosphonic acid] | 401 nM
CCN(CC)c1cc(C(=O)Nc2ccc(CNCCCP(=O)(O)O)cc2)cc2ccc(OC)cc12 [Compound 7, (3-{[4-({[4-(diethylamino)-6-methoxynaphthalen-2-yl]carbonyl}amino)benzyl]amino}propyl)phosphonic acid] | 95 nM

— patent US20140235592A1, “SUBSTITUTED 6-METHOXY-4-AMINO-N-PHENYL-2-NAPHTAMIDES AS SPHINGOSINE RECEPTOR MODULATORS” (Allergan, Inc., priority 2013, published 2014)
